# Columns and labels:
# [1] = target: WIL-FL (Homo sapiens, UniProt P01721); experiment: Fluorogenic coumarin titration; type: binding; settings: 0.05 in buffer
# [2] = target: JTO-V (Homo sapiens, UniProt P01721); experiment: NMR ZZ-exchange experiment; type: binding; settings: JTO-V2•1 complex
# Method: Chemical exchange saturation transfer (CEST) experiments were acquired on WIL-V samples at 0.4 mM in the presence of 0.2 or 0.3 mM 1 using a multi-site excitation scheme (16). […] Further details of the analysis of these experiments are given in the Supplemental NMR Analysis described below.
# [3] = system: 5J8 Fab; experiment: PK proteolysis; type: biochemical, human
# [4] = system: WIL-FL C214S; experiment: Aggregation measured by SEC (disappearance of soluble dimeric LC); type: biochemical, human; settings: 1 at 200 μM, LC 10 μM, pH 5, 37° C.; 0.066 hr^−1 in the absence of 1
# Method: Aggregation. WIL C214S was dialyzed into ddH2O and filtered. Each 1 ml reaction contained 10 μM LC, ddH2O, 1% DMSO or 200 μM 1 in 1% DMSO, 150 mM NaCl, and ABC buffer (20 mM sodium acetate, 20 mM boric acid, 20 mM sodium citrate, pH 5 with HCl). Components are listed in the order they were added.
# For analysis by SEC, reactions were set up in 2 ml tubes (Axygen #SCT-200-B-S) equipped with 4 mm stir bars. For each experiment, four reactions (two replicates each of vehicle and 1) were placed in a microfuge tube rack on top of the center of a stir plate. Reactions were stirred at approximately 2,000 rpm at 37° C., and 60 μl aliquots were removed at the indicated timepoints. Aliquots were centrifuged at 16,000 g at 4° C. for 5 min. 10 μl of the supernatant was injected into a Waters Acquity H-Class Bio-UPLC (ultra performance liquid chromatography) instrument equipped with a BEH200 SEC column (Waters, Milford, MA) equilibrated with PBS with 1 mM EDTA. At the end of an experiment, stir bars were washed for at least 3 h with 1 M NaOH, followed by at least 3 h with 6 M GuHCl at room temperature to remove residual aggregates.
# Thus, we also quantified aggregation by measuring the rate of disappearance of soluble dimeric LC using size exclusion chromatography (SEC) (4). […]
# [5] = target: T1, WIL-FL* (Homo sapiens, UniProt P01721, K101C, form not given); experiment: Protease-coupled fluorescence polarization (PCFP) assay with proteinase K; settings: secondary screen, mean ± sd, n=3; 6.75 μM compound; FP retention after 24 h at 22° C., normalized to high and low controls
# [6] = target: T1, WIL-FL*; experiment: PCFP assay with thermolysin; settings: mean ± sd, n=3; 6.75 μM compound
# Method: Thirdly, to remove molecules that inhibit proteinase K, the assay was repeated in triplicate using 100 nM thermolysin (Thermo). […] The additional metal ions were added to bind to ion-chelating small molecules and prevent them from inhibiting the metalloproteinase.
# To identify and exclude molecules that interfered with FP measurements, the assay was repeated, but candidate stabilizers were not added until after 24 h of PK treatment (FIG. 1f). […] Thermolysin is a broad-spectrum metalloprotease that is likely not inhibited by compounds that inhibit PK, a serine protease.
# [7] = target: WIL-V (Homo sapiens, UniProt P01721); experiment: Sedimentation velocity analytical ultracentrifugation (SV-AUC); settings: LC 20 μM, 1 at 100 μM
# Method: Analytical Ultracentrifugation (AUC). […] Sedimentation was measured by absorbance at 280 nm. Data were processed using SedFit (6).
# [8] = target: human serum albumin (HSA) (Homo sapiens, UniProt P02768); experiment: Binding of 1 to albumin by fluorescence of 1
# Sequence of human serum albumin (HSA) (P02768 25-609): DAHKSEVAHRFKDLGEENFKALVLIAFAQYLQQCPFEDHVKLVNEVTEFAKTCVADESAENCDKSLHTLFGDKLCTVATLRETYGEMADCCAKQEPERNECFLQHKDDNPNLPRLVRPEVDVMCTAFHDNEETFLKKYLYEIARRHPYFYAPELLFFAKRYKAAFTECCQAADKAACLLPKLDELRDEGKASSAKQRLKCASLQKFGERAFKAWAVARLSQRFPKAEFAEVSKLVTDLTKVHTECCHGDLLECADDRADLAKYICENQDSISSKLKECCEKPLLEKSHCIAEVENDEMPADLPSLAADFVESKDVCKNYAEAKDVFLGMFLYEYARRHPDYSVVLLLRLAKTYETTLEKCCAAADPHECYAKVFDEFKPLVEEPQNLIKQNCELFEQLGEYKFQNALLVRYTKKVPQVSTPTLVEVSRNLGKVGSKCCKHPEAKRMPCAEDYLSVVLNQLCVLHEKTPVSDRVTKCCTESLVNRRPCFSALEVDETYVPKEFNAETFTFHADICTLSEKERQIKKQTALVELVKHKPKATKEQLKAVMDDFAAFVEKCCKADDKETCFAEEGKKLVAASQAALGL
# Source text: Therefore, kinetic stabilizer binding selectivity to FL LCs in preference to other plasma proteins is important to minimize the proportion of free FL LC. Albumin binds many small molecules in blood, typically with μM KD values.
smiles,measurement,setting,value
"CCN(CC)c1ccc2c(C)cc(=O)oc2c1 [Compound 1, 7-diethylamino-4-methylcoumarin]",FP of 1 in the WIL-FL•1 complex,[1],0.35
same,off-rate,[2],57 ± 2 s⁻¹
same,protection from PK proteolysis,[3],does not protect
same,kagg,[4],0.011 h⁻¹
same,PK activity (%),[5],47.8 ± 0.7%
same,Thermolysin activity (%),[6],36.4 ± 2.0%
same,size distribution (SV-AUC),[7],increase
same,Kd,[8],37 ± 3 µM
same,affinity of 1 for albumin in the presence of diflunisal,[8]; 100 μM diflunisal,reduced
